The values below come from patent US20240398806A1, “Compositions For and Methods of Treating and/or Preventing Pain” (Duke University, priority 2021, published 2024).

Molecules are shown by their SMILES. Where two headings read alike, the source gives them in different places.

By half-life is commonly meant the time needed for the level to fall by half in the phase considered.

For one data set, the system named is NMDAR. The format is cell-based. To be noted: Arrb2-KO mice; NMDA 50 mM as printed. On the procedure:
In FIG. 9B-FIG. 9D. *p<0.05 as determined by a two-way or one-way ANOVA.
Spinal cord NMDAR plays a critical role in driving inflammatory and neuropathic pain (Woolf C J, et al. (2000) Science. 288(5472):1765-1769). Using spinal cord slice preparations, NMDA (50 mM) induced inward currents in spinal cord out lamina II (IIo) neurons were recorded in WT and Arrb2-KO mice. […] Similarly, duration of intrathecal (i.t.) NMDA-induced spontaneous pain was also potentiated in the KO mice (FIG. 9C).

The target in data set [1] is T1, NTSR1 (Homo sapiens, UniProt P30989). Nature of the data set: [3H]SBI-553 saturation binding to NTSR1-containing HEK293T cell membranes. Also on record: expressed in transfected cells; host or cells: HEK293T cell membranes. Conditions: by the named competitor.
T1 sequence (P30989 whole entry): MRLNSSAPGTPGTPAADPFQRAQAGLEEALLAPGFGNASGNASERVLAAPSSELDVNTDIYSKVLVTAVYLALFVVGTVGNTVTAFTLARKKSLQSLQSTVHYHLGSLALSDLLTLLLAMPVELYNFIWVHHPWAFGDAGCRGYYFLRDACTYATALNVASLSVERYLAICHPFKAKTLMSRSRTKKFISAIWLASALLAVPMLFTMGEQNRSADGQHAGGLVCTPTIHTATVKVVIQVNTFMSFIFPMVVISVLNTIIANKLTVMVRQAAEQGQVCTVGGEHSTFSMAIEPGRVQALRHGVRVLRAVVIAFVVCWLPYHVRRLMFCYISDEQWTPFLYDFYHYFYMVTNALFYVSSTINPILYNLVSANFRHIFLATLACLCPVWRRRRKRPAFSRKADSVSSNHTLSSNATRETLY
In data set [2] the target is T1, NTSR1. Nature of the data set: Cellular assay of β-arrestin-2 translocation in cells expressing NTSR1. It is filed as cell-based. Also on record: expressed in transfected cells; host or cells: HEK293T cell membranes. On the procedure:
(§1) First, using cellular assays, whether IND candidates such as SBI-810 are similar or better than SBI-553 as β-arrestin biased agonist at NTSR1. is assessed. The chemical entities used in this work were synthesized and validated. However, routine validation of the profile of these compounds is performed routinely using both cellular and in vivo assays. For example, HEK293 cells that express either the NTSR1 or NTSR2 are used to assess the functional profile of the various chemical probes. In addition, a series of genetically engineered mouse lines are used to provide an in vivo validation of novel chemical entities for their abilities to module behaviors in these animals.
(§2) Fourth, cellular assays are used to establish that IND ready analogs like SBI-810 are still selective for the NTSR1 rather than NTSR2. The specificity of the lead compounds toward NTSR1. NTSR2. and β-arrestin-2 are tested in respective cellular assays. More specifically, cells expressing either NTSR1 or NTSR2 are used to assess the function of various compound. […] This translocation is not observed in cells expressing NTSR2.
(§3) Fourth, genetically engineered mice are used to assess the effects and mechanisms of novel ligands. The specificity of the lead compounds toward NTSR1, NTSR2, and β-arrestin-2 dependent signaling is examined. […]

The nature of data set [3]: Pharmacokinetics in monkey (IV and PO). It is filed as in vivo. To be noted: for AUC: monkey; for MRT last: read-out: MRT0-last.
A short description of data set [4]: Pain models with systemic (IP or oral) administration. It is filed as in vivo, mice and rats.
The target in a further data set is T2, NTSR2 (Homo sapiens, UniProt O95665).
T2 construct: expressed in transfected cells; host or cells: HEK293 cells
T2 sequence (O95665 whole entry, species assumed): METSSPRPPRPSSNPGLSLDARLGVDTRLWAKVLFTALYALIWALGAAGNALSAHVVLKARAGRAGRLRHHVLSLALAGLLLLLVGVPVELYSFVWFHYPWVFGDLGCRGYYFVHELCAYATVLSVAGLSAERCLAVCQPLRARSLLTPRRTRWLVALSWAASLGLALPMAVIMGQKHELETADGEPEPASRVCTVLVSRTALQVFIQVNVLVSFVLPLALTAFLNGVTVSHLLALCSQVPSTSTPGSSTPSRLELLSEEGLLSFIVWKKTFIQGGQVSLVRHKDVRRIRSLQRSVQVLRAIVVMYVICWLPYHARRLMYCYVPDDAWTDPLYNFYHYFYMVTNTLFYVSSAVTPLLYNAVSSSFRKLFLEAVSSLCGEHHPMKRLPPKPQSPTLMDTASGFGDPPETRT
Put plainly: Cellular assay of β-arrestin-2 translocation in cells expressing NTSR2. It is filed as cell-based. Here is the method:
as §1, §2, §3

In the next data set the test system is lamina IIo neurons. Also on record: dose or concentration left out as unconfirmed. Conditions: slices of PTX-treated mice.

For `C[C@@H](CN1CCC(Cc2ccccc2)CC1)[C@@H](O)c1ccc(O)cc1` [Ro25], the “Block of the increase in NMDA current amplitude caused by Arrb2 deficiency” value in the data set on NMDAR was “dose-dependently blocked”.

For the molecule `COc1cccc(OC)c1-c1cc(C(=O)NC2(C(=O)O)C3CC4CC(C3)CC2C4)nn1-c1ccc(C(=O)N(C)CCCN(C)C)cc1C(C)C` (stereo not drawn) [SR142948A, reference compound], the “Displacement of [3H]SBI-553 from NTSR1” value at NTSR1 [1] is reported as “not displaced”.

For the molecule `COc1ccccc1C1CCN(c2nc(C3(C)CC3)nc3ccc(N(C)CCO)cc23)CC1` [SBI-810], the “Translocation of β-arrestin-2 to intracellular compartments” value was “demonstrate translocation of β-arrestin-2” at NTSR1 [2] and “not observed” at NTSR2. Moreover, the Co in data set [3] (Monkey, IV 5 mg/kg) was determined as 4702 ng/mL; in data set [3] (Monkey, PO 20 mg/kg), 314 ng/mL. The T2/2 in data set [3] (Monkey, IV 5 mg/kg) came to 6.54 h. The CI in data set [3] (Monkey, PO 20 mg/kg) worked out at 5.2 mL/min/kg. Also, the Oral availability entry in data set [3] (compared with SBI-553) is recorded as “enhanced oral availability”. For the same molecule, in data set [3] (following i.v. and p.o. dosing), the Levels in plasma entry was “good levels in plasma”. In addition, the AUC in data set [3] (plasma, iv, 5 mg/kg, Monkey, IV 5 mg/kg, read-out: AUCo-inf) stood at 4340 ng·h/mL; in data set [3] (plasma, iv, 5 mg/kg, Monkey, IV 5 mg/kg, read-out: AUCo-last), 4210 ng·h/mL; in data set [3] (plasma, po, 20 mg/kg, Monkey, PO 20 mg/kg, read-out: AUCo-inf), 2230 ng·h/mL; in data set [3] (plasma, po, 20 mg/kg, Monkey, PO 20 mg/kg, read-out: AUCo-last), 2120 ng·h/mL. For the same molecule, the clearance in data set [3] (plasma, Monkey, IV 5 mg/kg) worked out at 19.2 mL/min/kg. In addition, the MRT last was determined as 3.4 h in data set [3] (plasma, Monkey, IV 5 mg/kg) and 8 h in data set [3] (plasma, Monkey, PO 20 mg/kg). For the same molecule, the Vd in data set [3] (plasma, Monkey, IV 5 mg/kg, read-out: Vdss) came out at 5 L/kg. The half-life in data set [3] (plasma, Monkey, PO 20 mg/kg) was 4 h. The “Pain reduction compared with SBI-553” value in data set [4] is listed as “more effective in reducing pain than SBI-553”.

Consider `CN1CC[C@]23c4c5ccc(O)c4O[C@H]2[C@@H](O)C=C[C@H]3[C@H]1C5` [morphine, reference compound], for which the “Excitatory synaptic transmission (sEPSCs) in lamina IIo neurons” value in the data set with lamina IIo neurons is listed as “did not produce significant inhibition”.
